Structures are written as SMILES. In brackets after ≈: the same amount, converted by molar mass.

The experiment concerns Mycobacterium tuberculosis variant bovis. Description: Antituberculosis activity against Mycobacterium bovis ATCC 25523. The class given is functional.

Compound `Cc1ccnc(NC(=O)NS(=O)(=O)c2cc(NC(=O)CCl)ccc2Cl)n1` displayed a minimum inhibitory concentration (MIC) of 10 µg/mL (≈ 23.9 µM).

In turn, `COc1ccnc(NC(=O)NS(=O)(=O)c2cc(NC(=O)CCl)ccc2Cl)n1` returned an MIC of 10 µg/mL (≈ 23 µM).

One may read the MIC as the lowest concentration found to suppress growth. High values mean a less susceptible organism, low ones a more susceptible organism.
